What follows are compounds tested on Influenza virus A/PR/8/34 (H1N1) (assay: in vitro cytopathic effect (CPE) assay in MDCK cells). Conditions: H1N1|PR/8, 120 h; MDCK cells infected with Influenza virus A/PR/8/34 (H1N1), 5 days, cell viability by CCK8.
Type: cell-based
O=C1c2c(O)c(=O)ccn2N([C@H]2c3ccccc3SCc3cccc(F)c32)[C@@H]2[C@H]3C[C@@H]4CC[C@@]3(CCN12)O4 [Compound 4, (2S,4aS,14aR,14bR)-14-((R)-10-fluoro-6,11-dihydro-dibenzo[b,e]thiepin-11-yl)-9-hydroxy-1,3,4,5,6,14,14a,14b-octahydro-2H-2,4a-epoxypyrido[1′,2′:1,6][1,2,4]triazino[3,4-a]-isoquinoline-8,10-dione] showed an EC50 of 52 nM. O=C1c2c(O)c(=O)ccn2N([C@@H]2c3ccccc3SCc3cccc(F)c32)[C@@H]2[C@H]3C[C@@H]4CC[C@@]3(CCN12)O4 [Compound 3, (2S,4aS,14aR,14bR)-14-((S)-10-fluoro-6,11-dihydro-dibenzo[b,e]thiepin-11-yl)-9-hydroxy-1,3,4,5,6,14,14a,14b-octahydro-2H-2,4a-epoxypyrido[1′,2′:1,6][1,2,4]triazino[3,4-a]-isoquinoline-8,10-dione] was tested, and the EC50 was 2.1 nM. Work on O=C1c2c(O)c(=O)ccn2N(C2c3ccc(F)cc3CCc3cc(F)ccc32)[C@@H]2[C@H]3C[C@@H]4CC[C@@]3(CCN12)O4 [Compound 10, (2S,4aS,14aR,14bR)-14-(2,8-difluoro-10,11-dihydro-5H-dibenzo[a,d][7]annulen-5-yl)-9-hydroxy-1,3,4,5,6,14,14a,14b-octahydro-2H-2,4a-epoxypyrido[1′,2′:1,6][1,2,4]triazino[3,4-a]-isoquinoline-8,10-dione] yielded an EC50 of 3.6 nM. With O=C1c2c(O)c(=O)ccn2N(C2c3cccc(F)c3CCc3c(F)cccc32)[C@@H]2[C@H]3C[C@@H]4CC[C@@]3(CCN12)O4 [Compound 9, (2S,4aS,14aR,14bR)-14-(1,9-difluoro-10,11-dihydro-5H-dibenzo[a,d][7]annulen-5-yl)-9-hydroxy-1,3,4,5,6,14,14a,14b-octahydro-2H-2,4a-epoxypyrido[1′,2′:1,6][1,2,4]triazino[3,4-a]-isoquinoline-8,10-dione] the EC50 was 20 nM.

Reference: patent publication US20220177487A1, “FUSED POLYCYCLIC PYRIDONE COMPOUNDS AS INFLUENZA VIRUS REPLICATION INHIBITORS” (NIKANG THERAPEUTICS, INC., priority 2019, published 2022)
